Reference: patent US20120258976A1, “CRYSTALLINE PYRROLO[2,3-D]PYRIMIDINE COMPOUNDS” (Pfizer Inc., priority 2011, published 2012)

Assay: Tofacitinib stability in PEG-based ointment formulations after storage at 40° C.
Type: physicochemical
Text: Topical formulations contain 3-((3R,4R)-4-methyl-3-[methyl-(7H-pyrrolo[2,3-d]pyrimidin-4-yl)amino]-piperidin-1-yl)-3-oxopropionitrile in therapeutically effective amounts that can be given in daily or twice daily doses to patients in need. These amounts range from about 0.1% to about 5.0% (w/v), more preferably, from about 0.1% to about 3.0%, more preferably still, from about 0.5% to about 2.3%, and, most preferably, about 2.0% (w/v). Among other excipients which enhance the stability of these formulations include aldehyde scavengers, such as glycerine and propylene glycol, and antioxidants, such as butyl hydroxyanisole (BHA), butyl hydroxytoluene (BHT), propyl gallate, ascorbic acid (Vitamin C), polyphenols, tocopherols (Vitamin E), and their derivatives. Preferably, PEG-based ointment formulations containing at least 30% polyethylene glycol, tofacifinib and one or more penetration enhancers and additional pharmaceutically acceptable excipients forming a stable formulation such that the level of total degradants is no more than 7% when the product is stored at 40° C. for 4 weeks. More preferably, addition of aldehyde scavengers and antioxidants into formulations Ointment 1 (A) and Ointment 2 (C) stabilized the polyethylene glycol containing ointment formulations such that the level of total degradants is no more than 5% when the product is stored at 40° C. for 4 weeks.

C[C@@H]1CCN(C(=O)CC#N)C[C@@H]1N(C)c1ncnc2[nH]ccc12 [tofacitinib, 3-((3R,4R)-4-Methyl-3-[methyl-(7H-pyrrolo[2,3-d]pyrimidin-4-yl)-amino]-piperidin-1-yl)-3-oxopropionitrile]
Stability of tofacitinib in the presence of polyethylene glycol (PEG): poor stability
